Measurements reported in US20260096556A1, “AGRICULTURAL METHODS” (priority 2022, published 2026).

Test system: Phakopsora pachyrhizi
Test: Field trials: foliar spray on soybean plants, severity of infection from Phakopsora pachyrhizi
Format: in vivo
Conditions: for % control (% reduction of the area under the disease pressure curve): Brazil, soybean, 3 foliar applications, 75 g ai/ha
Procedure: Various compounds were formulated (a commercial EC250 formulation for prothioconazole, an SC100 formulation for compound X.04), diluted into a spray solution including an adjuvant, and applied to soybean plants in a foliar broadcast spray using a handheld horizontal boom sprayer. Three applications were made over the course of the growing season, starting approximately 45 days after crop emergence, with following applications at approximately 14 day intervals. Trials were conducted across five locations in Brazil.
Assessments of severity of infection from Phakopsora pachyrhizi were made at approximately weekly intervals, based on the percentage of leaf area covered by disease lesions. This is expressed in {Table B1} as a final % severity. The performance of the treatments were calculated as % reduction of the area under the disease pressure curve for the treated plots in the trial, based on assessments up to 28 days after the third application. Samples were taken from diseased leaves in the untreated plots and evaluated for the % population frequency of the F129L mutation that generates resistance to strobilurin fungicides.
Samples of leaves were taken from the untreated plots and DNA extracted from disease lesions. qPCR analysis was conducted to determine the frequency of F129L within the sampled pathogen population.

[1] = Trial A, F129L frequency in untreated 94.33%, untreated severity 97.50%
[2] = Trial B, F129L frequency in untreated 93.67%, untreated severity 83.10%
[3] = Trial C, F129L frequency in untreated 93.00%, untreated severity 96.80%
[4] = Trial D, F129L frequency in untreated 22.00%, untreated severity 74.2%
[5] = Trial E, F129L frequency in untreated 44.67%, untreated severity 95.00%

SMILES	% control (% reduction of the area under the disease pressure curve) [1] [%]	% control (% reduction of the area under the disease pressure curve) [2] [%]	% control (% reduction of the area under the disease pressure curve) [3] [%]	% control (% reduction of the area under the disease pressure curve) [4] [%]	% control (% reduction of the area under the disease pressure curve) [5] [%]	performance compared to prothioconazole and to a commercial standard containing prothioconazole and a standard strobilurin fungicide (trials with a high (>90%) frequency of F129L in the untreated population)
CO/C=C(\Oc1cc(C2CCCCC2)ccc1C)C(=O)OC [compound X.04, methyl (Z)-2-(5-cyclohexyl-2-methyl-phenoxy)-3-methoxy-prop-2-enoate]	91.00	45.50	95.46	71.39	63.48	superior
OC(Cc1ccccc1Cl)(Cn1nc[nH]c1=S)C1(Cl)CC1 (centres unmarked) [prothioconazole, reference compound]	72.66	28.86	63.89	72.53	67.30	–
